Measured values taken from patent publication US11229597B2, “Topical doxycycline composition” (HORUS PHARMA, priority 2017, dated 2022).

Test: Stability tests of doxycycline (active principle content by HPLC over time)
Assay type: physicochemical
Conditions: for stability of doxycycline in glycerol solution as a function of time: 25° C. (FIG. 2)
Method: The preparation in the form of an H/L emulsion containing the active principle and cyclodextrins in solution in the polyol is carried out according to the following method: • The liquid hydrophobic material/semi-solid hydrophobic material base (called phase A) is formulated by mixing in a water bath at 75° C. to make all components miscible. For the mass ratio of liquid hydrophobic material to semi-solid hydrophobic material 0/100, the semi-solid hydrophobic material is added directly to the mixer at 45° C. • The temperature of phase A is lowered to 45° C. and then phase A is transferred to the mixer whose temperature is 45° C. • The cyclodextrin is added to the polyol (called phase B) and magnetically stirred then the doxycyline hyclate is added to phase B and magnetically stirred until all components are completely dissolved, the temperature of the solution is increased to 45° C. • When phases A and B are at the same temperature, phase B is added to phase A under stirring to form an emulsion. • The emulsion is stirred for 30 minutes at 700 rpm at 45° C. and then the temperature of the entire mixture is reduced to 37° C. • The resulting emulsion is packaged and cooled to room temperature. In order to assay of the active principle in the formulation, the following extraction is carried out: • 1.0 g of the formula is diluted in 10.0 g of water and stirred with a suitable stirring system for 30 minutes at 45° C. • After filtration with a nylon filter at 0.45 μm, a dilution in the mobile phase is performed for a high-performance liquid chromatography assay. The active principle content is determined by the following high-performance liquid chromatography method: • Column: XTerra® RP 8 5 μm 4.6×250 mm • Mobile phase: • 65% water containing 0.13% oxalic acid • 22% acetonitrile • 13% methanol • Flow rate: 1.0 mL/min
Stability tests are performed at temperatures of 25° C. and 40° C.: […]

Row | stability of doxycycline in aqueous solution as a function of time (0.1% aqueous solution, 25° C. and 40° C. (FIG. 1)) | stability of doxycycline in glycerol solution as a function of time (0.1% doxycycline hyclate in glycerol with β-cyclodextrins) | stability of doxycycline in glycerol solution as a function of time (0.1% doxycycline hyclate in glycerol without β-cyclodextrins) | Compound
1 | rapidly degraded | – | – | C[C@H]1c2cccc(O)c2C(=O)C2=C(O)[C@]3(O)C(=O)C(C(N)=O)=C(O)[C@@H](N(C)C)[C@@H]3[C@@H](O)[C@@H]21 [doxycycline]
2 | – | no or little degradation | no or little degradation | doxycycline hyclate
